Measured values reported in US10597388B2, “Pyridazinone herbicides” (FMC CORPORATION, priority 2014, dated 2020).

What was measured:
Assay type in all cases: in vivo
[1] = system: blackgrass (Alopecurus myosuroides); experiment: Test A greenhouse herbicide test, postemergence
How it was run: (§1)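 Visual injury score, 0 (no effect) to 100 (complete control), versus untreated controls roughly 10 d after postemergence spray; plants at one- to two-leaf stage, 2 to 10 cm tall, in loam soil and sand, kept in greenhouse.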

[2] = system: galium (catchweed bedstraw, Galium aparine); experiment: Test A greenhouse herbicide test, postemergence
How it was run: as §1

[3] = system: barnyardgrass (Echinochloa crus-galli); experiment: Test B flooded paddy test; conditions: 250 g ai/ha, Flood; visual rating on scale of 0 to 100 where 0 is no effect and 100 is complete control; 13 to 15 d after treatment
How it was run: (§2)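 Plants grown to the 2-leaf stage. At treatment, pots were flooded to 3 cm above the soil, compound was applied directly to the paddy water, and that depth was held throughout. After 13 to 15 d in the greenhouse, response was rated visually against controls on a 0 (no effect) to 100 (complete control) scale.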

[4] = system: sedge, umbrella (small-flower umbrella sedge, Cyperus difformis); experiment: Test B flooded paddy test; conditions: 250 g ai/ha, Flood; visual rating on scale of 0 to 100 where 0 is no effect and 100 is complete control; 13 to 15 d after treatment
How it was run: as §2

[5] = system: rice (Oryza sativa); experiment: Test B flooded paddy test; conditions: 250 g ai/ha, Flood; visual rating on scale of 0 to 100 where 0 is no effect and 100 is complete control; 13 to 15 d after treatment
How it was run: as §2

[6] = system: ducksalad (Heteranthera limosa); experiment: Test B flooded paddy test; conditions: 250 g ai/ha, Flood; visual rating on scale of 0 to 100 where 0 is no effect and 100 is complete control; 13 to 15 d after treatment
How it was run: as §2

[7] = system: barnyardgrass (Echinochloa crus-galli); experiment: Test A greenhouse herbicide test, pre- and postemergence
How it was run: (§3)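 Seeds in loam–sand blend received a preemergence directed soil spray; plants at 2–10 cm, one- to two-leaf stage, received postemergence sprays. Compounds in a non-phytotoxic solvent with surfactant. After about 10 d in a greenhouse, injury rated visually versus untreated controls on a 0–100 scale (100 = complete control).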

[8] = system: kochia (Kochia scoparia); experiment: as above
How it was run: as §3

[9] = system: foxtail, giant (giant foxtail, Setaria faberii); experiment: as above
How it was run: as §3

[10] = system: pigweed (Amaranthus retroflexus); experiment: as above
How it was run: as §3

[11] = system: ryegrass, Italian (Italian ryegrass, Lolium multiflorum); experiment: as above
How it was run: as §3

[12] = system: wheat (Triticum aestivum); experiment: as above; conditions: Postemergence
How it was run: as §3

[13] = system: corn (Zea mays); experiment: as above; conditions: Postemergence
How it was run: as §3

[14] = system: ragweed (common ragweed, Ambrosia elatior); experiment: as above
How it was run: as §3

[15] = 125 g ai/ha, 0 to 100 scale, 0 no effect, 100 complete control
[16] = 500 g ai/ha, visual rating after approx. 10 d, 0 to 100 scale (0 no effect, 100 complete control)
[17] = Postemergence, 125 g ai/ha, 0 to 100 scale, 0 no effect, 100 complete control
[18] = Postemergence, 500 g ai/ha, visual rating after approx. 10 d, 0 to 100 scale (0 no effect, 100 complete control)
[19] = Preemergence, 500 g ai/ha, 0 to 100 scale where 0 is no effect and 100 is complete control
[20] = Preemergence, second run of lines under the 500 g ai/ha head, rate not given, 0 to 100 scale
[21] = 125 g ai/ha, 0 to 100 scale where 0 is no effect and 100 is complete control
[22] = 500 g ai/ha, 0 to 100 scale, 0 is no effect, 100 is complete control
[23] = Postemergence, 125 g ai/ha, 0 to 100 scale where 0 is no effect and 100 is complete control
[24] = Postemergence, 500 g ai/ha, 0 to 100 scale, 0 is no effect, 100 is complete control
[25] = Preemergence, 125 g ai/ha, 0 to 100 scale where 0 is no effect and 100 is complete control
[26] = Preemergence, 500 g ai/ha, 0 to 100 scale, 0 no effect, 100 complete control

Cc1cc(C)c2sc(C)c(-c3c(OCC#N)c(C)nn(C)c3=O)c2c1 [Compound 188]
Plant response rating, Blackgrass [1, 15]: 10 | Plant response rating, Blackgrass [1, 16]: 60 | Plant response rating, Galium [2, 15]: 70 | Plant response rating, Galium [2, 16]: 90 | Plant response rating, Barnyardgrass [3]: 0 | Plant response rating, Sedge, Umbrella [4]: 0 | Plant response rating, Rice [5]: 0 | Plant response rating, Ducksalad [6]: 0 | Plant response rating, Barnyardgrass [7, 17]: 10 | Plant response rating, Barnyardgrass [7, 18]: 20 | Plant response rating, Barnyardgrass [7, 19]: 30 | Plant response rating, Barnyardgrass [7, 20]: 10 | Plant response rating, Kochia [8, 17]: 10 | Plant response rating, Kochia [8, 18]: 20 | Plant response rating, Kochia [8, 19]: 20 | Plant response rating, Kochia [8, 20]: 20 | Plant response rating, Foxtail, Giant [9, 17]: 20 | Plant response rating, Foxtail, Giant [9, 18]: 80 | Plant response rating, Foxtail, Giant [9, 19]: 90 | Plant response rating, Foxtail, Giant [9, 20]: 10 | Plant response rating, Pigweed [10, 17]: 50 | Plant response rating, Pigweed [10, 18]: 80 | Plant response rating, Pigweed [10, 19]: 90 | Plant response rating, Pigweed [10, 20]: 60 | Plant response rating, Ryegrass, Italian [11, 17]: 20 | Plant response rating, Ryegrass, Italian [11, 18]: 80 | Plant response rating, Ryegrass, Italian [11, 19]: 80 | Plant response rating, Ryegrass, Italian [11, 20]: 20 | Plant response rating, Wheat [12, 15]: 0 | Plant response rating, Wheat [12, 16]: 0 | Plant response rating, Corn [13, 15]: 0 | Plant response rating, Corn [13, 16]: 0 | Plant response rating, Ragweed [14, 17]: 20 | Plant response rating, Ragweed [14, 18]: 50 | Plant response rating, Ragweed [14, 19]: 30 | Plant response rating, Ragweed [14, 20]: 10

Cc1cc(C)c2c(-c3c(OC(=O)C(C)(C)C)c(C)nn(C)c3=O)c(C)sc2c1 [Compound 45]
Plant response rating, Blackgrass [1, 21]: 0 | Blackgrass plant response rating [1, 22]: 0 | Plant response rating, Galium [2, 21]: 0 | Galium plant response rating [2, 22]: 0 | Plant response rating, Barnyardgrass [3]: 0 | Plant response rating, Sedge, Umbrella [4]: 0 | Plant response rating, Rice [5]: 0 | Plant response rating, Ducksalad [6]: 0 | Plant response rating, Barnyardgrass [7, 23]: 0 | Barnyardgrass plant response rating [7, 24]: 0 | Barnyardgrass plant response rating [7, 25]: 0 | Plant response rating, Barnyardgrass [7, 26]: 0 | Plant response rating, Kochia [8, 23]: 0 | Kochia plant response rating [8, 24]: 0 | Kochia plant response rating [8, 25]: 0 | Plant response rating, Kochia [8, 26]: 0 | Plant response rating, Foxtail, Giant [9, 23]: 0 | Foxtail, Giant plant response rating [9, 24]: 0 | Foxtail, Giant plant response rating [9, 25]: 0 | Plant response rating, Foxtail, Giant [9, 26]: 0 | Plant response rating, Pigweed [10, 23]: 0 | Pigweed plant response rating [10, 24]: 0 | Pigweed plant response rating [10, 25]: 0 | Plant response rating, Pigweed [10, 26]: 0 | Plant response rating, Ryegrass, Italian [11, 23]: 0 | Ryegrass, Italian plant response rating [11, 24]: 0 | Ryegrass, Italian plant response rating [11, 25]: 0 | Plant response rating, Ryegrass, Italian [11, 26]: 0 | Plant response rating, Wheat [12, 21]: 0 | Wheat plant response rating [12, 22]: 0 | Plant response rating, Corn [13, 21]: 0 | Corn plant response rating [13, 22]: 0 | Plant response rating, Ragweed [14, 23]: 0 | Ragweed plant response rating [14, 24]: 0 | Ragweed plant response rating [14, 25]: 0 | Plant response rating, Ragweed [14, 26]: 0
